From ChEMBL document CHEMBL1137583 (Bioorg Med Chem Lett, 2007)

Molecular target: Melanin-concentrating hormone receptor 1 (Homo sapiens, UniProt Q99705)
Experiment: Inhibition of 125I-MCH binding to human MCH-R1 expressed in CHO cell membranes
Settings: not given

Chain of Melanin-concentrating hormone receptor 1 (Q99705 whole entry): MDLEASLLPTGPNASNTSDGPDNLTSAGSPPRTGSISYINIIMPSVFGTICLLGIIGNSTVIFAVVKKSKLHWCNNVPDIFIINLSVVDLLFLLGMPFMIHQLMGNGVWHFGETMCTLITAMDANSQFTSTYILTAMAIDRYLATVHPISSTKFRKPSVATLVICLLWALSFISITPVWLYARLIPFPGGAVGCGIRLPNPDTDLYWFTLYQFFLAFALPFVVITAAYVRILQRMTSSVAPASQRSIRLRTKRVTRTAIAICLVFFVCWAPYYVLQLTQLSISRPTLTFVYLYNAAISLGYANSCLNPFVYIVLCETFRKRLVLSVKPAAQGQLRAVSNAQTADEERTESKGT

Ki [nM] | SMILES
340 | CN1CCN(CCCN(C(=O)Nc2ccc(F)c(Cl)c2)C2CCc3cc(C#N)ccc3C2)CC1 (centres undefined)
4 | CN1CCN(CCCN(C(=O)Nc2ccc(F)c(Cl)c2)[C@@H]2CC[C@]3(c4cccc(C#N)c4)C[C@@H]3C2)CC1
3000 | CN1CCN(CCCN(C(=O)Nc2ccc(F)c(Cl)c2)C2CCc3ccc(S(=O)(=O)N(C)C)cc3C2)CC1 (centres undefined)
1300 | CN1CCN(CCCN(C(=O)Nc2ccc(F)c(Cl)c2)C2CCc3ccc(S(C)(=O)=O)cc3C2)CC1 (centres undefined)
190 | COc1ccc2c(c1)CCC(N(CCCN1CCN(C)CC1)C(=O)Nc1ccc(F)c(Cl)c1)C2 (centres undefined)
380 | CN1CCN(CCCN(C(=O)Nc2ccc(F)c(Cl)c2)C2CCc3ccccc3C2)CC1 (centres undefined)
3000 | CNS(=O)(=O)c1ccc2c(c1)CC(N(CCCN1CCN(C)CC1)C(=O)Nc1ccc(F)c(Cl)c1)CC2 (centres undefined)
8.5 | CN1CCN(CCCN(C(=O)Nc2ccc(F)c(Cl)c2)C2CCc3ccc(C#N)cc3C2)CC1 (centres undefined)
160 | CCNC(=O)Nc1ccc2c(c1)CC(N(CCCN1CCN(C)CC1)C(=O)Nc1ccc(F)c(Cl)c1)CC2 (centres undefined)
260 | CN1CCN(CCCN(C(=O)Nc2ccc(F)c(Cl)c2)C2CCc3ccc(N)cc3C2)CC1 (centres undefined)

Tested on: Mus musculus
Experiment: Inhibition of ex vivo MCH-R1 binding following 30 mg/kg peroral dose in mice after 6hr
Type: functional
Settings: route oral

SMILES | inhibition in vivo at 30 mg/kg [%]
CC(=O)Nc1ccc2c(c1)CC(N(CCCN1CCN(C)CC1)C(=O)Nc1ccc(F)c(Cl)c1)CC2 (centres undefined) | 23
CN1CCN(CCCN(C(=O)Nc2ccc(F)c(Cl)c2)C2CCc3ccc(C#N)cc3C2)CC1 (centres undefined) | 84

Tested on: not listed separately
Experiment: AUC (0-6hr) in rats following 10 mg/kg peroral dose
Type: ADME, organism-based
Design: time < 6 hr, dose 10 mg/kg, route oral
Settings: rat, plasma, po

AUC(0-t) at 6 h [ng·h/mL] | SMILES
195 | CC(=O)Nc1ccc2c(c1)CC(N(CCCN1CCN(C)CC1)C(=O)Nc1ccc(F)c(Cl)c1)CC2 (centres undefined)
642 | CN1CCN(CCCN(C(=O)Nc2ccc(F)c(Cl)c2)C2CCc3ccc(C#N)cc3C2)CC1 (centres undefined)
